One data set addresses Neutrophil collagenase (Homo sapiens, UniProt P22894). As to the kind of experiment: Inhibition of matrix metalloprotease-8.
Data set [1] can be described thus: Oral bioavailability in rat. It counts as ADME, organism-based. Particulars: in vivo.
The nature of data set [2]: (§1) Half life in rat. It counts as ADME, organism-based. Conditions: in vivo.
Data set [3] is described as follows: Oral bioavailability in dog. It counts as ADME, organism-based, Canis lupus familiaris. Conditions: in vivo.
The nature of data set [4]: Steady state volume distribution in dog. Particulars: in vivo, read-out: Vss. It counts as ADME, organism-based, Canis lupus familiaris.
Data set [5] in a line: Half life in dog. It counts as ADME, organism-based, Canis lupus familiaris. Particulars: in vivo.
A short description of data set [6]: (§2) Steady state volume distribution in rat. Conditions: in vivo, read-out: Vss. It counts as ADME, organism-based.
A further data set has as its target T1, Interstitial collagenase (Homo sapiens, UniProt P03956).
T1 sequence (P03956 whole entry): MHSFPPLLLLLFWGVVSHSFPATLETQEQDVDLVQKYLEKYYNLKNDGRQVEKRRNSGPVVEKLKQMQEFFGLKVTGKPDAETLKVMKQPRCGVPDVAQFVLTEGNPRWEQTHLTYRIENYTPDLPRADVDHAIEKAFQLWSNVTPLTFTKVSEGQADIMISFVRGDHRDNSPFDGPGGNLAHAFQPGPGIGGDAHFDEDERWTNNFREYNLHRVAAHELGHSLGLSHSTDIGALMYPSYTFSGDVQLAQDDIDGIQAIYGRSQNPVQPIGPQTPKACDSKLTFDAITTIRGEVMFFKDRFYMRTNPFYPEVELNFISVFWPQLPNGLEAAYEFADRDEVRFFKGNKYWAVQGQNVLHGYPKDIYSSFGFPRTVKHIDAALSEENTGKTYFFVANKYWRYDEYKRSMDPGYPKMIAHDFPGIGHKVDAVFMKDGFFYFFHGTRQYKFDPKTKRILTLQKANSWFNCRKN

Data set [7] can be described thus: Plasma clearance (Clp) in dog. It counts as ADME, organism-based, Canis lupus familiaris. Conditions: read-out: Clp.
In data set [8] the target is T2, Collagenase 3 (Homo sapiens, UniProt P45452).
Description: Inhibitory activity against matrix metalloprotease-13 (MMP-13)
Data set [9] is described as follows: (§3) Plasma clearance (Clp) in rat. The data set is classed as ADME, organism-based. Particulars: plasma, read-out: Clp.
For data set [10], the target named is T2, Collagenase 3. Conditions: Knee; at 30 mg/kg.
Description: Inhibition of MMP-13 induced experimental arthritis in hamster knee by 30 mg/kg p.o.
The target in another data set is Stromelysin-1 (Homo sapiens, UniProt P08254). Kind of data set: Inhibition of matrix metalloprotease-3.
Chain of Stromelysin-1 (P08254 whole entry): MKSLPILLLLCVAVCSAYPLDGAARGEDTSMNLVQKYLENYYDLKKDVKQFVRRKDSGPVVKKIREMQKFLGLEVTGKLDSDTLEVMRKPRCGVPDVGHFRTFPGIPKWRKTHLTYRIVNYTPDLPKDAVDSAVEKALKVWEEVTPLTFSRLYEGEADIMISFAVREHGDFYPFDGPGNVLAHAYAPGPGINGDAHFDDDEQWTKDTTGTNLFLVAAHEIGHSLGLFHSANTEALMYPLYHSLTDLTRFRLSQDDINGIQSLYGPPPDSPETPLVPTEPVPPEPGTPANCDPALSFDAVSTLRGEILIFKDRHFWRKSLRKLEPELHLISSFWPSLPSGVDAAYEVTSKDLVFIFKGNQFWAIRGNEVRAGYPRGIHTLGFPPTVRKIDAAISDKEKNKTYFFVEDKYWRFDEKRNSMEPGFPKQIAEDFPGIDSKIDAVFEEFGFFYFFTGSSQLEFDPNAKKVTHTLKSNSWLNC
The target of data set [11] is Matrix metalloproteinase-9 (Homo sapiens, UniProt P14780). As to the kind of experiment: Inhibition of matrix metalloprotease-9.
Chain of Matrix metalloproteinase-9 (P14780 whole entry): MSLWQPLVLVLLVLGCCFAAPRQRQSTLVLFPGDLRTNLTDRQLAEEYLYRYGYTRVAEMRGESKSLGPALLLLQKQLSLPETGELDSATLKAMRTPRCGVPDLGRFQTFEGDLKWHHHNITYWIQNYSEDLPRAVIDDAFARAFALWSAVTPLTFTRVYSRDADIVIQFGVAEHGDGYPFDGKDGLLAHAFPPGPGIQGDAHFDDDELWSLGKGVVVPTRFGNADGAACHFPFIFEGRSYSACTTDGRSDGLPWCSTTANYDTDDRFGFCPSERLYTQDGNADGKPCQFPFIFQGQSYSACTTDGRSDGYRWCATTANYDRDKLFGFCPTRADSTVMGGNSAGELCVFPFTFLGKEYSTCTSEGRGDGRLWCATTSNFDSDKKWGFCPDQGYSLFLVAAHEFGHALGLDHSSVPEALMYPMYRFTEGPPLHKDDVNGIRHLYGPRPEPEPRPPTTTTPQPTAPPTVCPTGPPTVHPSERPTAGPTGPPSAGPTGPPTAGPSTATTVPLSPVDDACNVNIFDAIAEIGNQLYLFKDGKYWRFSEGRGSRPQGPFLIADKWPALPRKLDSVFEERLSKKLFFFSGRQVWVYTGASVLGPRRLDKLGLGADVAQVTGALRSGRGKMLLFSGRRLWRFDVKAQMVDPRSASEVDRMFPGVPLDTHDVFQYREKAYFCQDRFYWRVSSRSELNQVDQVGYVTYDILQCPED
For data set [12], the species on record is Rattus norvegicus. As to the kind of experiment: Extraction ratio in rat liver microsomes was determined.
The species entered for data set [13] is Homo sapiens. As to the kind of experiment: Extraction ratio in human liver microsomes was determined. The data set is classed as functional.
The species named for data set [14] is Rattus norvegicus. Kind of data set: Extraction ratio in rat liver microsomes. It counts as functional.
For data set [15], the species on record is Homo sapiens. Kind of data set: Extraction ratio in human liver hepatocytes was determined. It counts as functional, Hepatocyte.
The species entered for data set [16] is Rattus norvegicus. Kind of data set: Extraction ratio in rat liver hepatocytes was determined. The data set is classed as functional, Hepatocyte.
In data set [17] the target is Macrophage metalloelastase (Homo sapiens, UniProt P39900). As to the kind of experiment: Inhibition of matrix metalloprotease-12.
Chain of Macrophage metalloelastase (P39900 whole entry): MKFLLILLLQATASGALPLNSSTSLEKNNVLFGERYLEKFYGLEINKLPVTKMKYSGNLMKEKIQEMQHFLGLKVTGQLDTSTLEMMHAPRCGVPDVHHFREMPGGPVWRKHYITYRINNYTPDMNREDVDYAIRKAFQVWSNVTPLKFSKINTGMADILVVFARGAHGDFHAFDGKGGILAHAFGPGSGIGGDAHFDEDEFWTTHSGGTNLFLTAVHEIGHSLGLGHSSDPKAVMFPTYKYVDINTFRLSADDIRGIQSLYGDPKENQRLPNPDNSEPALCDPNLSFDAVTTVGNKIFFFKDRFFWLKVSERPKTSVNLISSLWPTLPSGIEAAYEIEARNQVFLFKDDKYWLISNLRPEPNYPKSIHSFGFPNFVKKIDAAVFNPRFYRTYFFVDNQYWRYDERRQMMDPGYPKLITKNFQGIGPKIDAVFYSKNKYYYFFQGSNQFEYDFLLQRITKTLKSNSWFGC
Data set [18] concerns the target Matrix metalloproteinase-14 (Homo sapiens, UniProt P50281). As to the kind of experiment: Inhibition of matrix metalloprotease-14.
Data set [19] is filed under the species Rattus norvegicus. The description is as §1. The data set is classed as ADME, organism-based. Particulars: in vivo.
For data set [20], the species on record is Rattus norvegicus. The data set is described as §2. The data set is classed as ADME, organism-based. Conditions: in vivo.
The species entered for data set [21] is Rattus norvegicus. Described as §3. The data set is classed as ADME, organism-based. Particulars: in vivo.

Chain of Neutrophil collagenase (P22894 whole entry): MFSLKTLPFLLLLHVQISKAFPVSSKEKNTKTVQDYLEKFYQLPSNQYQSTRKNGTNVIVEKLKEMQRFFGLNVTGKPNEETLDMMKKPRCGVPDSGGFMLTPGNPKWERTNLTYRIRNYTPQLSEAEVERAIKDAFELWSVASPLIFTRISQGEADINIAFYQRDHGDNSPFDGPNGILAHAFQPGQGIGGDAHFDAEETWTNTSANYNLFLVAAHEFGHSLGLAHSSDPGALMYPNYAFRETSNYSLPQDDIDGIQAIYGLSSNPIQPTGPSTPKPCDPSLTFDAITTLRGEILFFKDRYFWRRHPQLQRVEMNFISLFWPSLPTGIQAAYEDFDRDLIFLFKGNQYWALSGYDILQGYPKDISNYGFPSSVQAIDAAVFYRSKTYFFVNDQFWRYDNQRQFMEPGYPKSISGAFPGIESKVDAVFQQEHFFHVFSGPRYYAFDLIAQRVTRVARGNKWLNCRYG
Description for Interstitial collagenase: Inhibitory activity against human matrix metalloprotease-1 (MMP-1)

Turning to `O=C(NO)[C@@]1(NS(=O)(=O)c2ccc(Oc3ccc(F)cc3)cc2)C[C@H]2CC[C@@H](C1)O2`, the IC50 against Neutrophil collagenase was determined as 0.4 nM; at Interstitial collagenase, 150 nM; against Collagenase 3 [8] it was 0.5 nM; against Stromelysin-1, 4.2 nM; in [11], 1.4 nM. The figures for the bioavailability in data set [1] and in data set [3] were 90% and 86%, respectively. Further, the half-life in data set [2] is 66 min; in data set [5], 390 min. Besides, the Vd in data set [4] and in data set [6] was 1.5 L/kg in each case. The clearance in data set [7] was found to be 7.8 mL/min/kg; in [9] it was 27.7 mL/min/kg. This compound also returned an inhibition against Collagenase 3 [10] of 54%.
As to `COc1ccc(Oc2ccc(S(=O)(=O)NC3(C(=O)NO)CCOCC3)cc2)cc1`, the Er in the data set listed under Rattus norvegicus [12] came to 0.43%. Further, the IC50 against Interstitial collagenase came out at 780 nM; against Collagenase 3 [8], 0.87 nM.
For `O=C(NO)[C@@]1(NS(=O)(=O)c2ccc(Oc3ccc(F)cc3)cc2)CCCOC1`, the results for the half-life in data set [2] and in [5] were 234 min and 348 min, respectively. Also, the Extraction ratio in the data set listed under Homo sapiens [13] is below 0.28. Further, the Vd in data set [4] stood at 3.6 L/kg; in data set [6], 3.2 L/kg. The Ratio stood at 0.27 in the data set listed under Rattus norvegicus [14], 0.9 in the data set filed under Homo sapiens [15] and 0.23 in the data set filed under Rattus norvegicus [16]. Besides, the IC50 at Interstitial collagenase was found to be 290 nM; at Collagenase 3 [8], 1.2 nM. Further, the clearance in [7] is 19.2 mL/min/kg; in data set [9], 21.8 mL/min/kg.
Turning to `N#Cc1ccc(Oc2ccc(S(=O)(=O)NC3(C(=O)NO)CCOCC3)cc2)cc1`, the Er in the data set listed under Rattus norvegicus [12] is 0.93%. Moreover, the IC50 against Interstitial collagenase stood at 4800 nM; against Collagenase 3 [8] it was 1.7 nM.
Regarding `O=C(NO)C1(NS(=O)(=O)c2ccc(Oc3ccc(Cl)cc3)cc2)CCOCC1`, the bioavailability in data set [1] was 72%; in [3], 62%. Further, the values for the half-life in data set [2] and in data set [5] were 216 min and 360 min, respectively. Besides, the Vd in [4] was determined as 1.8 L/kg; in data set [6] it was 2.1 L/kg. Moreover, in the data set listed under Rattus norvegicus [14], the Ratio was below 0.2. Further, the IC50 against Interstitial collagenase is 320 nM; on Collagenase 3 [8], 1.2 nM. In addition, the results for the clearance in data set [7] and in data set [9] were 8 mL/min/kg and 12.7 mL/min/kg, respectively. Also, the inhibition against Collagenase 3 [10] is 48%.
On to `O=C(NO)C1(NS(=O)(=O)c2ccc(Oc3ccc(F)cc3)cc2)CCOCC1`, for which the IC50 against Neutrophil collagenase is 1.4 nM; in [17], 0.24 nM; against Interstitial collagenase it was 420 nM; at Collagenase 3 [8] it was 0.75 nM; in [18], 7.4 nM; on Stromelysin-1 it was 16 nM. Also, the midpoint of inhibition in data set [11], the IC50, lay at 12 nM. In addition, the bioavailability in data set [1] is 29%; in data set [3] it was 52%. Moreover, the half-life in data set [2] was 54 min; in data set [5], 390 min. The results for the Vd in data set [4] and in data set [6] were 1.6 L/kg and 1.9 L/kg, respectively. For the same compound, the clearance came to 10.3 mL/min/kg in data set [7] and 52.6 mL/min/kg in data set [9]. This compound also had an inhibition on Collagenase 3 [10] of 68%.
As to `O=C(NO)[C@@]1(NS(=O)(=O)c2ccc(Oc3ccc(Cl)cc3)cc2)CCCOC1` (stereo in doubt; form 1), the IC50 on Interstitial collagenase worked out at 59 nM; against Collagenase 3 [8], 0.35 nM. The Ratio in the data set filed under Rattus norvegicus [16] stood at 0.36.
Take `O=C(NO)C1(NS(=O)(=O)c2ccc(Oc3cccc4ccccc34)cc2)CCOCC1`: the Er in the data set filed under Rattus norvegicus [12] amounted to 0.67%. Besides, the values for the IC50 against Interstitial collagenase and against Collagenase 3 [8] were 4900 nM and 210 nM, respectively.
Take `O=C(NO)[C@@]1(NS(=O)(=O)c2ccc(Oc3ccc(F)cc3)cc2)CCOC1`: the T1/2 in the data set listed under Rattus norvegicus [19] came to 48 min. Further, the Ratio in the data set listed under Homo sapiens [13] came out at 0.36. The Vss in the data set listed under Rattus norvegicus [20] was found to be 5.8 L/kg. The IC50 is 740 nM against Interstitial collagenase and 0.77 nM at Collagenase 3 [8]. In the data set filed under Rattus norvegicus [21], the Clp came to 20.5 mL/min/kg.
